Active and inactive are the calls of the source. The rule behind the calls is not given here.
Tests used:
Mus musculus [1] = assay: Antinociceptive activity in sc dosed mouse by tail flick method; assay type: functional
Mus musculus [2] = assay: Antinociceptive activity in sc dosed mouse by hot plate method; assay type: functional
Mus musculus [3] = assay: Antinociceptive activity in sc dosed mouse assessed as inhibition of morphin response by tail flick assay; assay type: functional
Mus musculus [4] = assay: Antinociceptive activity in sc dosed mouse by phenylquinone antiwrithing assay; assay type: functional
[5] = Displacement of [3H]etorphine from opioid receptor in rat cerebrum
[6] = Displacement of 3.0 nM [3H]etorphine from opioid receptor in rat cerebrum
Mu-type opioid receptor = Mu-type opioid receptor (Mus musculus, UniProt P42866); assay: Agonist activity at mu opioid receptor in Swiss mouse vas deferens assessed as inhibition of electrically-stimulated twitch; assay type: functional, tissue-based
Sequence of Mu-type opioid receptor (P42866 whole entry): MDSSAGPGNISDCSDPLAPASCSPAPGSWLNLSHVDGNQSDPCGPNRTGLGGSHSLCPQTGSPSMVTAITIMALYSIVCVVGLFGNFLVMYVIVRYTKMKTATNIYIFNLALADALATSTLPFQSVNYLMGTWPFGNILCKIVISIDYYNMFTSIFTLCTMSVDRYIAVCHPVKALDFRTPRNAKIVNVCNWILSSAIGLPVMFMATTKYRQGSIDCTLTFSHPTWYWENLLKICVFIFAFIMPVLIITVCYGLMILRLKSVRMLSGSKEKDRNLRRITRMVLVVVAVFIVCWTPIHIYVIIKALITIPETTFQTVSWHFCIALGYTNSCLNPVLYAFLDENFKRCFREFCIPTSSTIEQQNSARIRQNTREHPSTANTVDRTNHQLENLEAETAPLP

CCOC(=O)CCN1CC[C@]2(C)c3cc(O)ccc3CC1[C@@H]2C
Activity (Mus musculus [1]): inactive | Activity (Mus musculus [2]): inactive | Activity (Mus musculus [3]): inactive | Activity (Mus musculus [4]): inactive

C[C@H]1C2Cc3ccc(O)cc3[C@@]1(C)CCN2CCCC(=O)O
EC50 [5]: > 6 µM | Activity (Mus musculus [1]): inactive | Activity (Mus musculus [2]): inactive | Activity (Mus musculus [3]): inactive | ED50 (Mus musculus [4]): 1.4 mg/kg

COc1ccc2c3c1O[C@H]1[C@@H](O)C=C[C@H]4[C@@H](C2)N(C)CC[C@@]341 [CODEINE]
EC50 [6]: 34.7 µM

CN1CC[C@]23c4c5ccc(O)c4O[C@H]2[C@@H](O)C=C[C@H]3[C@H]1C5 [MORPHINE]
ED50 (Mus musculus [3]): 2.6 mg/kg

C[C@H]1C2Cc3ccc(O)cc3[C@@]1(C)CCN2CC(=O)O
EC50 [5]: > 6 µM | Activity (Mus musculus [1]): inactive | EC50 (Mu-type opioid receptor): 9.79 µM | Activity (Mus musculus [2]): inactive | Activity (Mus musculus [3]): inactive | Activity (Mus musculus [4]): inactive

C[C@H]1[C@@H]2Cc3ccc(O)cc3[C@]1(C)CCN2C [METAZOCINE]
ED50 (Mus musculus [1]): 0.81 mg/kg | ED50 (Mus musculus [2]): 0.62 mg/kg | Activity (Mus musculus [3]): inactive | ED50 (Mus musculus [4]): 0.3 mg/kg

CCOC(=O)CN1CC[C@]2(C)c3cc(O)ccc3CC1[C@@H]2C
EC50 [5]: 2.08 µM | Activity (Mus musculus [1]): inactive | Activity (Mus musculus [2]): inactive | Activity (Mus musculus [3]): inactive | Activity (Mus musculus [4]): inactive

CCOC(=O)CCCN1CC[C@]2(C)c3cc(O)ccc3CC1[C@@H]2C
EC50 [5]: 1.02 µM | Activity (Mus musculus [1]): inactive | EC50 (Mu-type opioid receptor): 17.9 µM | Activity (Mus musculus [2]): inactive | Activity (Mus musculus [3]): inactive | ED50 (Mus musculus [4]): 7.1 mg/kg

C[C@H]1C2Cc3ccc(O)cc3[C@@]1(C)CCN2CCC(=O)O
EC50 [5]: > 6 µM | Activity (Mus musculus [1]): inactive | Activity (Mus musculus [2]): inactive | Activity (Mus musculus [3]): inactive | ED50 (Mus musculus [4]): 11.4 mg/kg

O=C1CC[C@@]2(O)[C@H]3Cc4ccc(O)c5c4[C@@]2(CCN3CC2CC2)[C@H]1O5 [NALTREXONE]
EC50 [5]: 0.00063 µM | Activity (Mus musculus [1]): inactive | Activity (Mus musculus [2]): inactive | ED50 (Mus musculus [3]): 0.007 mg/kg | EC50 [6]: 0.002 µM | Activity (Mus musculus [4]): inactive

C=CCN1CC[C@]23c4c5ccc(O)c4O[C@H]2C(=O)CC[C@@]3(O)[C@H]1C5 [NALOXONE]
EC50 [5]: 0.00626 µM | Activity (Mus musculus [1]): inactive | Activity (Mus musculus [2]): inactive | ED50 (Mus musculus [3]): 0.03 mg/kg | EC50 [6]: 0.0091 µM | Activity (Mus musculus [4]): inactive

C=CCN1CC[C@]23c4c5ccc(O)c4O[C@H]2[C@@H](O)C=C[C@H]3[C@H]1C5 [NALORPHINE]
EC50 [5]: 0.02 µM | Activity (Mus musculus [1]): inactive | ED50 (Mus musculus [3]): 2.6 mg/kg | ED50 (Mus musculus [4]): 0.6 mg/kg

Source: ChEMBL document CHEMBL1143143, “The influence of esters and carboxylic acids as the N-substituent of opioids. Part 1: Benzomorphans” (Bioorg Med Chem, 2008)
